“And” between values parts separate entries of the source, which are not always exact repeats. Equal values may be shown once.
Experiments:
[1] = target: Amyloid-beta precursor protein (Homo sapiens) (UniProt P05067); assay: Inhibition of amyloid beta (unknown origin) aggregation at 25 uM relative to control
[2] = target: cGMP-specific 3',5'-cyclic phosphodiesterase (Homo sapiens, UniProt O76074); assay: Inhibition of PDE5 (unknown origin)
[3] = target: Histone deacetylase; assay: Inhibition of HDAC (unknown origin); type: protein assay, Homo sapiens
[4] = target: T1, Amine oxidase [flavin-containing] A (Homo sapiens, UniProt P21397); assay: Binding affinity to MAO-A (unknown origin) assessed as inhibition constant
T1 sequence (P21397 whole entry): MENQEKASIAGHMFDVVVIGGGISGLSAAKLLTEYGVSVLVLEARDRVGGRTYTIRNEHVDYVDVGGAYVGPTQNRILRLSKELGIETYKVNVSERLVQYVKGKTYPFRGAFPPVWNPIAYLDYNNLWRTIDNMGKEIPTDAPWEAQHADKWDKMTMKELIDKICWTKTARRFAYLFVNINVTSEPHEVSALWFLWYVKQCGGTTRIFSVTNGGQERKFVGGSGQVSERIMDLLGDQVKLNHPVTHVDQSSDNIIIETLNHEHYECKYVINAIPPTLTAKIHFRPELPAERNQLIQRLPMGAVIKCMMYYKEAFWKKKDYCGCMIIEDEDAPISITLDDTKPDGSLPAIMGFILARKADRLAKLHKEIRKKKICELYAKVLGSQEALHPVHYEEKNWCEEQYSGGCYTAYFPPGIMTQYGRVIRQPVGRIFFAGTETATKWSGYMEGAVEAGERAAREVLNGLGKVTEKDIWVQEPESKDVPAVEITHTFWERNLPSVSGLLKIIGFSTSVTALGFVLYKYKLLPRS

[5] = target: T2, Gamma-aminobutyric acid receptor subunit alpha-1 (Homo sapiens, UniProt P14867); assay: Binding affinity to human recombinant GABAA alpha1 receptor assessed as inhibition constant incubated for 1 hrs by liquid scintillation counting analysis
T2 sequence (P14867 whole entry): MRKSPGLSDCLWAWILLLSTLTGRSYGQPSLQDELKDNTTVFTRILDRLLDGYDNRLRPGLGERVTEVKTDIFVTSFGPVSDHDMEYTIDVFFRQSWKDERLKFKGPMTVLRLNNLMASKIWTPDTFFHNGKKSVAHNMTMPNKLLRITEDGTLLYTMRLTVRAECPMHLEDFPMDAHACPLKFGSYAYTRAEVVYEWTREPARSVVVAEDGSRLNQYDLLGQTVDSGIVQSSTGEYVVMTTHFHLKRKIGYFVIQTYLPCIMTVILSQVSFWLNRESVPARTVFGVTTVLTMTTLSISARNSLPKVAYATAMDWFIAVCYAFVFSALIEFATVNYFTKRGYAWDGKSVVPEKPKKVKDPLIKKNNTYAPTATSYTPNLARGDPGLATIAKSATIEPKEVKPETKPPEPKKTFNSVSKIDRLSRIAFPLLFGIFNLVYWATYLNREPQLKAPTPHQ

[6] = target: T3, Gamma-aminobutyric acid receptor subunit alpha-2 (Homo sapiens, UniProt P47869); assay: Binding affinity to human recombinant GABAA alpha2 receptor assessed as inhibition constant incubated for 1 hrs by liquid scintillation counting analysis
T3 sequence (P47869 whole entry): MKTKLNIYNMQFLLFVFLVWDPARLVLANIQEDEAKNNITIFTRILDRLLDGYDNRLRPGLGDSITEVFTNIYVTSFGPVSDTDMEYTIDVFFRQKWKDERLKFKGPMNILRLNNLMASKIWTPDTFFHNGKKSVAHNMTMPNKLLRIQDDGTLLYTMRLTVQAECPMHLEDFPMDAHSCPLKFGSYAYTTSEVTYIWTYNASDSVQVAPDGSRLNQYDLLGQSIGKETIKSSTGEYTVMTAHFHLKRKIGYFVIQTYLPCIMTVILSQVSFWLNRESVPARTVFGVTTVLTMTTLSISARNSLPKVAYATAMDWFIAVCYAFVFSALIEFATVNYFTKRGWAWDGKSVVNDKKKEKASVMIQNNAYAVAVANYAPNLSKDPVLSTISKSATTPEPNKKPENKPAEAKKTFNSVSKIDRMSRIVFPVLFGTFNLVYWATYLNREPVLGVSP

[7] = target: T4, Gamma-aminobutyric acid receptor subunit alpha-3 (Homo sapiens, UniProt P34903); assay: Binding affinity to human recombinant GABAA alpha3 receptor assessed as inhibition constant incubated for 1 hrs by liquid scintillation counting analysis
T4 sequence (P34903 whole entry): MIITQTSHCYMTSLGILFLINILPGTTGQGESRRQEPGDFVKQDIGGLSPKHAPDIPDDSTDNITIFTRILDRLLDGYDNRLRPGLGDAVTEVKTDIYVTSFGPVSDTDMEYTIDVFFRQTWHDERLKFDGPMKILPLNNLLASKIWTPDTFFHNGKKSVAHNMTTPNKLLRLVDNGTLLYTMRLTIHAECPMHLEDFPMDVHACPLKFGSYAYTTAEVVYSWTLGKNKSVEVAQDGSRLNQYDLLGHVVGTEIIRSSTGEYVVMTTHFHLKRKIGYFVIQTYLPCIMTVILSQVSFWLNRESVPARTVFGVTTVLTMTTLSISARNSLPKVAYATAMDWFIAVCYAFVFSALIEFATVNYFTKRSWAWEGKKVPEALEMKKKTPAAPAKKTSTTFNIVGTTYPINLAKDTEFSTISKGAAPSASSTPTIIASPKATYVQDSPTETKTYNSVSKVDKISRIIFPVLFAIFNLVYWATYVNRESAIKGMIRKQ

[8] = target: T5, Gamma-aminobutyric acid receptor subunit alpha-5 (Homo sapiens, UniProt P31644); assay: Binding affinity to human recombinant GABAA alpha5 receptor assessed as inhibition constant incubated for 1 hrs by liquid scintillation counting analysis
T5 sequence (P31644 whole entry): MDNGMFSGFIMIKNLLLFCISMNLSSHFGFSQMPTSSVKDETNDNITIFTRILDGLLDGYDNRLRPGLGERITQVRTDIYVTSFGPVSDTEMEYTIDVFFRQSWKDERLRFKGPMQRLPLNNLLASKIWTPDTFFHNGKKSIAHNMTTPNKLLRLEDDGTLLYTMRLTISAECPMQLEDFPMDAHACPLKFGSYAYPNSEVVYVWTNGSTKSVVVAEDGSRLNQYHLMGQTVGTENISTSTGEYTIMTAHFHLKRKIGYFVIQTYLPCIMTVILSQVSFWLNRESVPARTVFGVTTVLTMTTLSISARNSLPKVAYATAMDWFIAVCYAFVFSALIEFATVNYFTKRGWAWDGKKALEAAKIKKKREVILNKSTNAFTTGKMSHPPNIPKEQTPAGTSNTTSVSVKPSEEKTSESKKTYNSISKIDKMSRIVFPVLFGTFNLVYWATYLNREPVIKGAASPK

[9] = target: T6, Gamma-aminobutyric acid receptor subunit alpha-6 (Homo sapiens, UniProt Q16445); assay: Binding affinity to human recombinant GABAA alpha6 receptor assessed as inhibition constant incubated for 1 hrs by liquid scintillation counting analysis
[10] = target: T2, Gamma-aminobutyric acid receptor subunit alpha-1; assay: Inhibition of GABAA alpha1 receptor (unknown origin)
[11] = target: T3, Gamma-aminobutyric acid receptor subunit alpha-2; assay: Inhibition of GABAA alpha2 receptor (unknown origin)
[12] = target: T4, Gamma-aminobutyric acid receptor subunit alpha-3; assay: Inhibition of GABAA alpha3 receptor (unknown origin)
[13] = target: T5, Gamma-aminobutyric acid receptor subunit alpha-5; assay: Inhibition of GABAA alpha5 receptor (unknown origin)
[14] = target: T6, Gamma-aminobutyric acid receptor subunit alpha-6; assay: Binding affinity to GABAA alpha6 receptor (unknown origin) assessed as inhibition constant
[15] = target: 5-hydroxytryptamine receptor 2A (Rattus norvegicus, UniProt P14842); assay: Displacement of [3H]-ketanserin from rat 5-HT2A expressed in mouse NIH/3T3 cells assessed as inhibition constant by Cheng-Prusoff equation analysis; type: cell-based
[16] = target: 5-hydroxytryptamine receptor 2C (Rattus norvegicus, UniProt P08909); assay: Displacement of [3H]-ketanserin from rat 5-HT2C expressed in mouse NIH/3T3 cells assessed as inhibition constant by Cheng-Prusoff equation analysis; type: cell-based
[17] = target: 5-hydroxytryptamine receptor 2B (Rattus norvegicus, UniProt P30994); assay: Displacement of [3H]-ketanserin from rat 5-HT2B expressed in mouse NIH/3T3 cells assessed as inhibition constant by Cheng-Prusoff equation analysis; type: cell-based
[18] = target: 5-hydroxytryptamine receptor 2B (Homo sapiens, UniProt P41595); assay: Binding affinity to 5-HT2B (unknown origin) assessed as equilibrium binding constant
[19] = target: 5-hydroxytryptamine receptor 1A (Homo sapiens, UniProt P08908); assay: Displacement of […] from human 5-HT1A expressed in human HEK cells assessed as inhibition constant by FLIPR assay; type: cell-based
[20] = target: 5-hydroxytryptamine receptor 2A (Homo sapiens, UniProt P28223); assay: Displacement of [3H]-LSD from human 5-HT2A expressed in human HEK cells assessed as inhibition constant by FLIPR assay; type: cell-based
[21] = target: T7, 5-hydroxytryptamine receptor 3A (Homo sapiens, UniProt P46098); assay: Binding affinity to 5-HT3R (unknown origin) assessed as inhibition constant
T7 sequence (P46098 whole entry): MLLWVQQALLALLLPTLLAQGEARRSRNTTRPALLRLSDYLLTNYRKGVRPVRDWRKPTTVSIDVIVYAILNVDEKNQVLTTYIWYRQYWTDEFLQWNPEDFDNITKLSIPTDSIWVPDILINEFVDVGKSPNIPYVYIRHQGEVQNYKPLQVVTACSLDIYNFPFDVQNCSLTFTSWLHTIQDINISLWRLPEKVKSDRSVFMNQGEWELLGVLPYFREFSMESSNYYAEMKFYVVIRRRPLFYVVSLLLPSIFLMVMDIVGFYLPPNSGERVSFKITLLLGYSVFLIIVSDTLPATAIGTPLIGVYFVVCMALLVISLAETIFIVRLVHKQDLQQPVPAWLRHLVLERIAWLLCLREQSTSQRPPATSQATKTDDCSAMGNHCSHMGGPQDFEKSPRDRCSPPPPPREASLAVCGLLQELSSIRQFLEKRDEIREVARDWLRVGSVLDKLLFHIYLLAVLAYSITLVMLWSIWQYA

[22] = target: Acetylcholinesterase (Homo sapiens, UniProt P22303); assay: Inhibition of AChE (unknown origin)
[23] = target: Cholinesterase (Homo sapiens, UniProt P06276); assay: Inhibition of BuChE (unknown origin)
[24] = Inhibition of NMDA receptor (unknown origin); design: species or system Homo sapiens
[25] = target: GABA-A receptor; anion channel; assay: Displacement of [3H]flunitrazepam from GABAA (unknown origin ) receptor by radioligand binding assay; type: protein-complex assay, Homo sapiens
[26] = target: Glycogen synthase kinase-3 beta (Homo sapiens, UniProt P49841); assay: Inhibition of GSK-3beta (unknown origin)
Chain of Glycogen synthase kinase-3 beta (P49841 whole entry): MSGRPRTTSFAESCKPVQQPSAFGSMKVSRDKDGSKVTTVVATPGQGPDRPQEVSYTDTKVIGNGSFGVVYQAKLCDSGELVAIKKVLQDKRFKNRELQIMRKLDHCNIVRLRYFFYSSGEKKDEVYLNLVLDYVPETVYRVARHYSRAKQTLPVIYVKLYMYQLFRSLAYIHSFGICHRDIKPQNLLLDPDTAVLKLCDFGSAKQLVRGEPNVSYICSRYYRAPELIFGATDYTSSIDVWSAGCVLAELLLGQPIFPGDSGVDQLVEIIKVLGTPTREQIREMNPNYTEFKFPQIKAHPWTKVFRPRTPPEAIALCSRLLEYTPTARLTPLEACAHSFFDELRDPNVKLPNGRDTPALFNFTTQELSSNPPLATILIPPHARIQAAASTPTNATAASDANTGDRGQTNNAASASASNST

T6 sequence (Q16445 whole entry): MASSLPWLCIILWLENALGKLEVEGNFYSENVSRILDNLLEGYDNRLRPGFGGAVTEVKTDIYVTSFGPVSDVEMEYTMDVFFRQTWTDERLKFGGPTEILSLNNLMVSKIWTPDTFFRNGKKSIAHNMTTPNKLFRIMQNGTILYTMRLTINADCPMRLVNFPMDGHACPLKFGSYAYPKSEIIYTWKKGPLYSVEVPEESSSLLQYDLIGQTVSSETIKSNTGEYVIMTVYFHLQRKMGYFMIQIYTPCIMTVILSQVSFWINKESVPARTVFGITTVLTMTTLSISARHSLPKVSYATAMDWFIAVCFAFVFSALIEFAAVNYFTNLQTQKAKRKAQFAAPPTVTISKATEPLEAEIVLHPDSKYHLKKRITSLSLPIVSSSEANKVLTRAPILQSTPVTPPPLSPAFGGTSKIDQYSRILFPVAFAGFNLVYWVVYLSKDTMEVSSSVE
Chain of Amyloid-beta precursor protein (Homo sapiens) (P05067 whole entry): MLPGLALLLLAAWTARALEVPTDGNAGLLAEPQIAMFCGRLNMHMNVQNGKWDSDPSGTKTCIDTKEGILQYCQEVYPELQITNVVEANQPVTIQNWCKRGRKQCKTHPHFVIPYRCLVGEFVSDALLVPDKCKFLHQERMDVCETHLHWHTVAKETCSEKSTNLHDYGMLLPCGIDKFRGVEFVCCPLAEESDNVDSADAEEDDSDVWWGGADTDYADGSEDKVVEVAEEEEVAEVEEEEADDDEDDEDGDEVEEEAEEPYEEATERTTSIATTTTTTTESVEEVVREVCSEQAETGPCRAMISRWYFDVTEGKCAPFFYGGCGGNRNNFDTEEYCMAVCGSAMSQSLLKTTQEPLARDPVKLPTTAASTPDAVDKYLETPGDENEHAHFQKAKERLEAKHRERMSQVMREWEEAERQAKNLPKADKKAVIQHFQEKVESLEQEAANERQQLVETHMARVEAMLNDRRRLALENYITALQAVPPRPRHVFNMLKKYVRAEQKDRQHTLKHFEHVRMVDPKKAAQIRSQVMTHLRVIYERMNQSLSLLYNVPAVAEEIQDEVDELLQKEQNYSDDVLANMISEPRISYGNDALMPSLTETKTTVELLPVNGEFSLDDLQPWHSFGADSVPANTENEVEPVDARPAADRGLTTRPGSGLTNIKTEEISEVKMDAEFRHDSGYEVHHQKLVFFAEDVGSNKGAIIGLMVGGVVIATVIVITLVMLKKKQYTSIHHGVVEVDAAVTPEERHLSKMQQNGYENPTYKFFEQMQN
Chain of 5-hydroxytryptamine receptor 2B (Homo sapiens, UniProt P41595) (P41595 whole entry): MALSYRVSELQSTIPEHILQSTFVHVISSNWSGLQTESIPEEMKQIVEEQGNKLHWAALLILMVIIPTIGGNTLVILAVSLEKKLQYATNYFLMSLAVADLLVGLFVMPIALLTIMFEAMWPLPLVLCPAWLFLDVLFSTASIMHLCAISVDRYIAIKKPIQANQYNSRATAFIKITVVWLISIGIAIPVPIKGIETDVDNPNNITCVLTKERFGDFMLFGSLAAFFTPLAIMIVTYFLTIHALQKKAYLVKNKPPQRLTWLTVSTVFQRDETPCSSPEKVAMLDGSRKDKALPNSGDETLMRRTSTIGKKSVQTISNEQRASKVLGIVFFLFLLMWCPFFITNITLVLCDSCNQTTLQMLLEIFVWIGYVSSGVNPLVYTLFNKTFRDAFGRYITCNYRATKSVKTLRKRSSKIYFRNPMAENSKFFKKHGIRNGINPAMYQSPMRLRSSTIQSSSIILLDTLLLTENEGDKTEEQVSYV
Chain of 5-hydroxytryptamine receptor 2C (P08909 whole entry): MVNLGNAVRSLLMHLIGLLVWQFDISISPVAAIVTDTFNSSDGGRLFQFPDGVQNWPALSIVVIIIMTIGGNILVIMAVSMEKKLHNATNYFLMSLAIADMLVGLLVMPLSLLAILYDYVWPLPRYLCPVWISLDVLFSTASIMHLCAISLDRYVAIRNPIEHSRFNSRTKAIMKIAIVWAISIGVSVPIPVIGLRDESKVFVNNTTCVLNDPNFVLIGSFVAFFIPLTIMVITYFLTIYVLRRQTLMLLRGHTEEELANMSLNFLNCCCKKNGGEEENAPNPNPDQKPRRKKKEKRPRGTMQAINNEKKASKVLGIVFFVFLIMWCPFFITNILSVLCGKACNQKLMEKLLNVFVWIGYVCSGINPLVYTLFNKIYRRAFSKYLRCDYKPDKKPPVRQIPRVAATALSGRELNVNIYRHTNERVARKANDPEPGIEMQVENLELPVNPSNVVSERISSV
Chain of 5-hydroxytryptamine receptor 2A (Rattus norvegicus, UniProt P14842) (P14842 whole entry): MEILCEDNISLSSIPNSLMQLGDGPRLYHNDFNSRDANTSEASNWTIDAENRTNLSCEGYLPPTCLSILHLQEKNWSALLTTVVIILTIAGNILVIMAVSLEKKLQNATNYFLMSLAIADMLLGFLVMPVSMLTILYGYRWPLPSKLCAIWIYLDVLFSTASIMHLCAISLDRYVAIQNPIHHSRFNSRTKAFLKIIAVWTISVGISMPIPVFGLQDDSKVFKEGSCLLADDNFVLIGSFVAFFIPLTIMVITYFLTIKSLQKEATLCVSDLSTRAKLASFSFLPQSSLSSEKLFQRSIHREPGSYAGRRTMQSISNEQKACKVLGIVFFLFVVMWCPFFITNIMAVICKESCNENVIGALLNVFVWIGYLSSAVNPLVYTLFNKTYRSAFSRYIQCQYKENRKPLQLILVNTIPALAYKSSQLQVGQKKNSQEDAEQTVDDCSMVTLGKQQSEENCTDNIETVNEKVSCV
Chain of Cholinesterase (P06276 whole entry): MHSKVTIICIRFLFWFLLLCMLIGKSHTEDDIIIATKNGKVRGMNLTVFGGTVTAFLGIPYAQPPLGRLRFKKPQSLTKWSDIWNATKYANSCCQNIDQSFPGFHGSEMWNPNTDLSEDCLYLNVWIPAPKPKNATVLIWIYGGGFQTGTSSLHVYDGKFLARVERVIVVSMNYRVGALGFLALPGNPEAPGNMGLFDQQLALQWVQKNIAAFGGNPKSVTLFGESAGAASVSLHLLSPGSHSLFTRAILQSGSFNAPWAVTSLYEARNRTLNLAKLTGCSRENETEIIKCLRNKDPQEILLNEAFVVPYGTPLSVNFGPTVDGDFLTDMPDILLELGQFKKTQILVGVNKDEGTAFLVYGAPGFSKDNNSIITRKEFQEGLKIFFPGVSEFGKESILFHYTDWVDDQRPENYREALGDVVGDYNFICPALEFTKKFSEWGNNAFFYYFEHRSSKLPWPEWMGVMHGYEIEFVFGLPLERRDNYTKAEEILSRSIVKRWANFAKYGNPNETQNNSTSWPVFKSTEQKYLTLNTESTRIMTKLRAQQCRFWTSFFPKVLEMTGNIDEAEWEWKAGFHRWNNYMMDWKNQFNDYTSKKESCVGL
Chain of 5-hydroxytryptamine receptor 2B (Rattus norvegicus, UniProt P30994) (P30994 whole entry): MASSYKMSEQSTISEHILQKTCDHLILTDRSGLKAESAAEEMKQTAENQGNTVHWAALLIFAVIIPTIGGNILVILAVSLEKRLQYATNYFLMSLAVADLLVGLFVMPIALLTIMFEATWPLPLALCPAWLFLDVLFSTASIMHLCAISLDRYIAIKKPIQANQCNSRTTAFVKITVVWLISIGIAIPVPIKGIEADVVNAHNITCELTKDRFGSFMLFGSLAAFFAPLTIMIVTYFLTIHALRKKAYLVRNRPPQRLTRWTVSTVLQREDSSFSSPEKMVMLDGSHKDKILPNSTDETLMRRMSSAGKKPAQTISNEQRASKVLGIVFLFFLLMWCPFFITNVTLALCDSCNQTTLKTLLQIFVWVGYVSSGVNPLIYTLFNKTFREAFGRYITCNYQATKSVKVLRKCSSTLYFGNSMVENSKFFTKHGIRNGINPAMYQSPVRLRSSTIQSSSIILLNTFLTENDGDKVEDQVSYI
Chain of Acetylcholinesterase (P22303 whole entry): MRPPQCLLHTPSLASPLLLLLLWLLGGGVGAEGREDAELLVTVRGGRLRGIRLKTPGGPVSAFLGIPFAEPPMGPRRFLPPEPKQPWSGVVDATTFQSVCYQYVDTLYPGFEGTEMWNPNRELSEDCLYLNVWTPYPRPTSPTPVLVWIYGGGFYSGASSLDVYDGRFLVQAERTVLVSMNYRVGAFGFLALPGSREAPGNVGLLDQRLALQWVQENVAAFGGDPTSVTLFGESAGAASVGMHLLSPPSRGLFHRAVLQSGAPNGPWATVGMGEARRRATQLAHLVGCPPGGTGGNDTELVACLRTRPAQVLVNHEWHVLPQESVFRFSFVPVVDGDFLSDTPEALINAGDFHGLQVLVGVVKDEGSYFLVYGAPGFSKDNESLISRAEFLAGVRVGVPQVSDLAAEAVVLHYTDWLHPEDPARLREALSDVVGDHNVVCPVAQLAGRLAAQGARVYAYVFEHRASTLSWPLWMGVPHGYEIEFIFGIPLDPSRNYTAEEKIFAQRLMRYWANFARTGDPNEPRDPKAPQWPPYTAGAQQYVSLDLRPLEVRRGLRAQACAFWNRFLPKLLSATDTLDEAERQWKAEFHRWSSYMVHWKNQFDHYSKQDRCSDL

CCCCc1ccc[n+](CC(=O)Nc2ccc3cc4c5[nH]c6ccccc6c5ccn4c(=O)c3c2)c1
inhibition [1]: 93%

O=C(CCCCCN1CC(=O)N2[C@H](c3ccc(Br)cc3)c3[nH]c4ccccc4c3C[C@@H]2C1=O)NO
IC50 [2]: 7 nM | IC50 [3]: 61 nM

COc1ccc2c3c(n(C)c2c1)C(C)=[N+](C)CC3
Ki [4]: 140 nM

COc1ccc2c3cc[n+](C)c(C)c3n(C)c2c1
Ki [4]: 69 nM and 15 nM

c1ccc2c(c1)[nH]c1cnc3c4cccnc4[nH]c3c12
Ki [5]: 2 nM | Ki [6]: 12 nM | Ki [7]: 16 nM | Ki [8]: 200 nM | Ki [9]: > 10000 nM | IC50 [10]: 2 nM | IC50 [11]: 12 nM | IC50 [12]: 16 nM | IC50 [13]: 200 nM | Ki [14]: > 10000 nM

c1ccc2c(c1)[nH]c1cnc3c4ccncc4[nH]c3c12
Ki [5]: 3 nM | Ki [6]: 24 nM | Ki [7]: 31 nM | Ki [8]: 240 nM | Ki [9]: > 10000 nM | IC50 [10]: 3 nM | IC50 [11]: 24 nM | IC50 [12]: 31 nM | IC50 [13]: 240 nM | Ki [14]: > 10000 nM

COc1ccc(CC2NCCc3c2[nH]c2c(C)c(C)ccc32)c(Br)c1OC (stereo not drawn)
Ki [15]: 9 nM | Ki [16]: 8 nM | Ki [17]: 0.08 nM | Kb [18]: 0.08 nM

CC1=NCCc2c1[nH]c1ccccc21
Ki [19]: 1700 nM | Ki [20]: 990 nM | Ki [21]: > 10000 nM

c1ccc2c(c1)[nH]c1c[n+](CCCCCCCCCCCC[n+]3ccc4c(c3)[nH]c3ccccc34)ccc12
IC50 [22]: 86000 nM | IC50 [23]: 1800 nM | IC50 [24]: 1800 nM

COc1ccc2c3c([nH]c2c1)C(C)NCC3 (stereo not drawn)
IC50 [25]: > 100000 nM | Ki [16]: > 10000 nM

Oc1cccc2c1[nH]c1c(C3=C[C@@]4(O)CC/C=C\CCCCN5CCC3[C@]3(C[C@@H]6/C=C\CCCCN6[C@H]34)C5)nccc12 (stereo partly drawn)
IC50 [26]: 4800 nM

O=C(CCCCCCN1CC(=O)N2[C@H](c3ccc(Cl)cc3)c3[nH]c4ccccc4c3C[C@@H]2C1=O)NO
IC50 [2]: 126 nM | IC50 [3]: 9.1 nM

CCCc1ccc[n+](CC(=O)Nc2ccc3cc4c5[nH]c6ccccc6c5ccn4c(=O)c3c2)c1
inhibition [1]: 93%

O=C(CCCCN1CC(=O)N2[C@H](c3ccc(Br)cc3)c3[nH]c4ccccc4c3C[C@@H]2C1=O)NO
IC50 [2]: 7 nM | IC50 [3]: 61 nM

From ChEMBL document CHEMBL5233266, “β-Carboline as a Privileged Scaffold for Multitarget Strategies in Alzheimer's Disease Therapy” (J Med Chem, 2021)
